What was measured:
glycoprotein metabolism [1] = assay: Effect of bromhexine on glycoprotein metabolism: urinary excretion of carbohydrate-containing material, diabetics; type: in vivo, humans
Method: (§1) The effect of N-(2-amino-3,5-dibromo-benzyl)-N-methyl-cyclohexylammonium chloride (Bromhexine) on glycoprotein metabolism was determined as follows:
(§2) 24 hour collections were made from 8 normal healthy humans (4 women and 4 men) and 8 diabetics (1 woman and 7 men) before and after a 3 to 4 week period of treating each subject orally 3 times with 24 mg of bromhexine. A 20% by volume aliquot was taken from each urine specimen and freeze-dried.
(§3) The dried material (ca 1 gm) was dissolved in the minimum quantity of distilled water and the solution was chromatographed with water on a Sephadez G-50 column (length: 148 cm; diameter: 3.4 cm). The carbohydrate-containing fraction was collected and subjected to ultrafiltration using a UM-05 membrane (Amicon Ultrafiltration Cell-Model 202). The filtrate obtained was again freeze-dried.
(§4) The dried material (ca 1 mg) was analyzed for carbohydrate, using gas-liquid chromatography. In this procedure, the sample, together with internal standards, was first subjected to methanolysis with 1.0 M HCl in dry methanol (0.5 ml) for 24 hours at 85° C. The resulting solution was neutralized and then treated with acetic acid anhydride (0.05 ml) for 6 hours. On completion of the treatment the solution obtained was centrifuged, and the supernatant liquid was transferred to a clean flask, dried and stored in a dessicator. When required for gas chromatography, the dried material was triturated with a trimethylsilylating mixture, and the resulting trimethylsilyl ethers of the methyl glycosides were subjected to gas chromatography (140°-200° C. at 0.5° C./min.).
5 patients were maintained on insulin, 2 on oral hypoglycemic agents and 1 on diet alone. Diabetic treatment was not changed during the study. 3 patients suffered varying degrees of retinopathy, 1 had ischaemic heart disease and 1 had intermittent proteinuria.

mice = settings: British Pat. No. 968,254; cited from earlier work
glycoprotein metabolism [2] = assay: Effect of bromhexine on glycoprotein metabolism: urinary excretion of carbohydrate-containing material, healthy subjects; type: in vivo, humans; settings: after treatment
Method: as §1, §2, §3, §4

[3] = healthy subjects, oral, 3 times 24 mg, 3 to 4 weeks, before 121

For `CN(Cc1cc(Br)cc(Br)c1N)C1CCCCC1` [N-(2-amino-3,5-dibromo-benzyl)-N-methyl-cyclohexylamine], the “proportion of saccharide and glycopeptide excreted” value (glycoprotein metabolism [1]; diabetics, 15 to 30 mg, 3 to 4 times per day) was “strongly reduced to levels equivalent to those of a normal healthy subject”.
For `CN(Cc1cc(Br)cc(Br)c1N)C1CCCCC1.Cl` [bromhexine, N-(2-amino-3,5-dibromo-benzyl)-N-methyl-cyclohexylammonium chloride], the “animals died (acute oral toxicity)” value (mice) is listed as 0 out of 10, the “excretion of carbohydrate-containing material” value (glycoprotein metabolism [1]; diabetic subjects, after treatment) is listed as “considerable decrease” and the “24 - Hour Volume” value (glycoprotein metabolism [1]; diabetics, after treatment, oral, 3 times 24 mg, 3 to 4 weeks, 24 hour urine, before 1,694) is listed as 1,686 ml. For the same compound, the Fraction dry weight (glycoprotein metabolism [1]; diabetics, after treatment, oral, 3 times 24 mg, 3 to 4 weeks, before 8.7) was 6.1 gm, the Total dry weight (glycoprotein metabolism [1]; diabetics, after treatment, oral, 3 times 24 mg, 3 to 4 weeks, before 102.6) was 110.7 gm and the “Carbohydrate content: N-Acetylneuraminic acid” value (glycoprotein metabolism [1]; diabetics, after treatment, oral, 3 times 24 mg, 3 to 4 weeks, before 195) was 145 μMol/24 hours. The “Carbohydrate content: Mannose” value (glycoprotein metabolism [1]; diabetics, after treatment, oral, 3 times 24 mg, 3 to 4 weeks, before 205) was 121 μMol/24 hours, the “Carbohydrate content: Fucose” value (glycoprotein metabolism [1]; diabetics, after treatment, oral, 3 times 24 mg, 3 to 4 weeks, before 259) was 203 μMol/24 hours and the “Carbohydrate content: N-Acetylgalactosamine” value (glycoprotein metabolism [1]; diabetics, after treatment, oral, 3 times 24 mg, 3 to 4 weeks, before 264) was 176 μMol/24 hours. For the same compound, the “Carbohydrate content: N-Acetylglucosamine” value (glycoprotein metabolism [1]; diabetics, after treatment, oral, 3 times 24 mg, 3 to 4 weeks, before 313) was 181 μMol/24 hours, the “Carbohydrate content: Galactose” value (glycoprotein metabolism [1]; diabetics, after treatment, oral, 3 times 24 mg, 3 to 4 weeks, before 616) was 383 μMol/24 hours and the “Carbohydrate content: Glucuronic acid” value (glycoprotein metabolism [1]; diabetics, after treatment, oral, 3 times 24 mg, 3 to 4 weeks, before 1,854) was 987 μMol/24 hours. The “Carbohydrate content: Glucose” value (glycoprotein metabolism [1]; diabetics, after treatment, oral, 3 times 24 mg, 3 to 4 weeks, before 12,609) was 7,241 μMol/24 hours, the “24 - Hour Volume” value (glycoprotein metabolism [2]; healthy subjects, oral, 3 times 24 mg, 3 to 4 weeks, 24 hour urine, before 1,281) was 1,406 ml and the Fraction dry weight (glycoprotein metabolism [2]; healthy subjects, oral, 3 times 24 mg, 3 to 4 weeks, before 4.2) was 4.4 gm. The Total dry weight (glycoprotein metabolism [2]; healthy subjects, oral, 3 times 24 mg, 3 to 4 weeks, before 36.3) was 44.0 gm, the “Carbohydrate content: N-Acetylneuraminic acid” value (glycoprotein metabolism [2]; healthy subjects, oral, 3 times 24 mg, 3 to 4 weeks, before 94) was 147 μMol/24 hours and the “Carbohydrate content: Fucose” value (glycoprotein metabolism [2]; [3]) was 224 μMol/24 hours. For the same compound, the “Carbohydrate content: Mannose” value (glycoprotein metabolism [2]; [3]) was 169 μMol/24 hours, the “Carbohydrate content: N-Acetylgalactosamine” value (glycoprotein metabolism [2]; healthy subjects, oral, 3 times 24 mg, 3 to 4 weeks, before 139) was 196 μMol/24 hours and the “Carbohydrate content: N-Acetylglucosamine” value (glycoprotein metabolism [2]; healthy subjects, oral, 3 times 24 mg, 3 to 4 weeks, before 204) was 287 μMol/24 hours. For the same compound, the “Carbohydrate content: Galactose” value (glycoprotein metabolism [2]; healthy subjects, oral, 3 times 24 mg, 3 to 4 weeks, before 258) was 364 μMol/24 hours, the “Carbohydrate content: Glucose” value (glycoprotein metabolism [2]; healthy subjects, oral, 3 times 24 mg, 3 to 4 weeks, before 329) was 425 μMol/24 hours and the “Carbohydrate content: Glucuronic acid” value (glycoprotein metabolism [2]; healthy subjects, oral, 3 times 24 mg, 3 to 4 weeks, before 1,085) was 1,573 μMol/24 hours. For the same compound, the “urinary excretion of carbohydrate-containing material” value (glycoprotein metabolism [2]; normal subjects) was “insignificant rise”.

Source: patent US4229477A, “Pharmaceutical compositions containing bromhexine and method of treating diabetic nephropathy therewith” (Boehringer Ingelheim GmbH, priority 1978, dated 1980)
